Reference: BindingDB's records for doi:10.1074/jbc.M109.089946 (Merck Research Laboratories, 2010)

Tests used:
[1] = target: T1, 3-phosphoinositide-dependent protein kinase 1 (Homo sapiens, UniProt O15530); experiment: TR-Fret Assay
T1 sequence (O15530 whole entry): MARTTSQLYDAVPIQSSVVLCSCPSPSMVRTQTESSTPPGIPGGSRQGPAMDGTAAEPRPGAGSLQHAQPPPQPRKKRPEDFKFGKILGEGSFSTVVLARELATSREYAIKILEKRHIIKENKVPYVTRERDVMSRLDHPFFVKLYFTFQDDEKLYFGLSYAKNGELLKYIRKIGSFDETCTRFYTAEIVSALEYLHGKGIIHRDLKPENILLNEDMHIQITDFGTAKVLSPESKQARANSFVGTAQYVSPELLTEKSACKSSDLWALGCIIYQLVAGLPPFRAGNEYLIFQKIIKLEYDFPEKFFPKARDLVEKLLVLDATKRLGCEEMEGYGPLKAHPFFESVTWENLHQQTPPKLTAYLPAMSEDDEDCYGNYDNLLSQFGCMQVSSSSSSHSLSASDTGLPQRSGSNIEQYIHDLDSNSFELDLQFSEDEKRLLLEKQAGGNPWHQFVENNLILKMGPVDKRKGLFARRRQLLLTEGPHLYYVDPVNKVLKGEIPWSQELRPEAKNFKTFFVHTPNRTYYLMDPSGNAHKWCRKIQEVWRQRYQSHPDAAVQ
Excerpt: 1536-Well TR-Fret uHTS assay PDK1-tide1 peptide substrate.

[2] = target: 3-phosphoinositide-dependent protein kinase 1 (Homo sapiens) (UniProt O15530); experiment: 384-Well TR-Fret assay using AKT-tide peptide substrate.

Row | IC50 [1] | IC50 [2] | Compound
1 | 18000 nM | > 30000 nM | CCCCCNC(=O)O[C@@H]1CC[C@@H]2[C@@H](C(=O)Nc3ccc(N(C)C)cc3)C[C@H]1N2CCC(C)C [Alkaloid 2]
2 | 11 nM | 14 nM | Cc1[nH]nc2c1c(=O)n(CCCN)c1ccc(Br)cc21 [Compound # 1]
3 | 20 nM | 28 nM | CC(C)(C)c1nc2c3ccc(F)cc3c3c(=O)[nH]ccc3c2[nH]1 [Jak Inhibitor 1]
